Assay results: patent US20070077305A1, “Biocompatible polymeric matrix and preparation thereof” (priority 2005, published 2007)

Experiment: In vitro diffusion test of film using Franz apparatus
Type: in vitro ADME
Conditions: after 24 h; from chitosan succinic acid film (DS about 60-80%); phosphate buffer pH 7.2, 32° C.
Method: The functionalized chitosan polymeric matrix was synthesized as previously described with a degree of substitution of about 60-80%. 500 mg of caffeine was added in 100 mL functionalized chitosan polymeric matrix solution (2.5%) and stirred during […]. Films were produce by applying 20 mL of the solution evenly onto Petri dishes and dried at room temperature for 24-48 h.
The film produced was subjected to an in vitro diffusion test using Franz apparatus, with an exposed surface area of 3.9 cm^2. Polydimethylsiloxan (Silastic®) membranes have been used as barrier and the receptor compartment (dissolution phase) was 1 L of 50 mM phosphate buffer (pH 7.2) at 32° C. At predetermined time intervals, the samples (5 mL aliquots) were analyzed at 272 nm for the determination of caffeine permeation.

Cn1c(=O)c2c(ncn2C)n(C)c1=O [caffeine]
amount of caffeine in the receptor compartment: 405 μg/cm^2
